For test [1], the target named is Serine/threonine-protein kinase D3 (Homo sapiens) (UniProt O94806). The experiment in a line: Binding affinity to wild-type human partial length PRKD3 (S543 to E863 residues) expressed in bacterial expression system assessed as residual binding level at 10 uM by Kinomescan method relative to control.
The subject of test [2] is Tyrosine-protein kinase ABL1 (Homo sapiens), P00519 [E255K]. The experiment in a line: Binding affinity to human phosphorylated ABL1 E255K mutant (S229 to K512 residues) expressed in mammalian expression system assessed as residual binding level at 10 uM by Kinomescan method relative to control.
The test system of test [3] is Epidermal growth factor receptor (Homo sapiens), P00533 [L861Q]. The experiment in a line: Binding affinity to human partial length EGFR L861Q mutant (R669 to V1011 residues) expressed in bacterial expression system assessed as residual binding level at 10 uM by Kinomescan method relative to control.
Test [4] concerns the target Aurora kinase A (Homo sapiens) (UniProt O14965). The experiment in a line: Binding affinity to wild-type human partial length AURKA (E122 to K401 residues) expressed in mammalian expression system assessed as residual binding level at 10 uM by Kinomescan method relative to control.
The target of test [5] is Mitogen-activated protein kinase kinase kinase 5 (Homo sapiens) (UniProt Q99683). The experiment in a line: Binding affinity to wild-type human partial length ASK1 (E648 to S964 residues) expressed in bacterial expression system assessed as residual binding level at 10 uM by Kinomescan method relative to control.
Test [6] concerns Epidermal growth factor receptor (Homo sapiens), P00533 [UNDEFINED MUTATION]. The experiment in a line: Binding affinity to human partial length EGFR L747-S752del/P753S mutant expressed in bacterial expression system assessed as residual binding level at 10 uM by Kinomescan method relative to control.
Test [7] concerns Mast/stem cell growth factor receptor Kit (Homo sapiens), P10721 [V559D,T670I]. The experiment in a line: Binding affinity to human partial length KIT V559D/T670I double mutant (Y545 to D952 residues) expressed in bacterial expression system assessed as residual binding level at 10 uM by Kinomescan method relative to control.
For test [8], the target named is Atypical kinase COQ8A, mitochondrial (Homo sapiens) (UniProt Q8NI60). The experiment in a line: Binding affinity to wild-type human full length ADCK3 (M280 to Q647 residues) expressed in bacterial expression system assessed as residual binding level at 10 uM by Kinomescan method relative to control.
In test [9] the target is Myosin-IIIb (Homo sapiens) (UniProt Q8WXR4). The experiment in a line: Binding affinity to wild-type human partial length MYO3B (M1 to D357 residues) expressed in bacterial expression system assessed as residual binding level at 10 uM by Kinomescan method relative to control.
For test [10], the target named is Calcium/calmodulin-dependent protein kinase type II subunit beta (Homo sapiens) (UniProt Q13554). The experiment in a line: Binding affinity to wild-type human partial length CAMK2B (M1 to Q380 residues) expressed in bacterial expression system assessed as residual binding level at 10 uM by Kinomescan method relative to control.
Test [11] addresses Mitogen-activated protein kinase 3 (Homo sapiens) (UniProt P27361). The experiment in a line: Binding affinity to wild-type human full length ERK1 (M1 to P379 residues) expressed in bacterial expression system assessed as residual binding level at 10 uM by Kinomescan method relative to control.
The target in test [12] is Myosin-IIIa (Homo sapiens) (UniProt Q8NEV4). The experiment in a line: Binding affinity to wild-type human partial length MYO3A (M1 to K338 residues) expressed in bacterial expression system assessed as residual binding level at 10 uM by Kinomescan method relative to control.
Test [13] concerns the target Mitogen-activated protein kinase 6 (Homo sapiens) (UniProt Q16659). The experiment in a line: Binding affinity to wild-type human partial length ERK3 (M1 to P413 residues) expressed in bacterial expression system assessed as residual binding level at 10 uM by Kinomescan method relative to control.
In test [14] the target is Serine/threonine-protein kinase 33 (Homo sapiens) (UniProt Q9BYT3). The experiment in a line: Binding affinity to wild-type human full length STK33 (M1 to L514 residues) expressed in bacterial expression system assessed as residual binding level at 10 uM by Kinomescan method relative to control.
In test [15] the target is Serine/threonine-protein kinase Nek10 (Homo sapiens) (UniProt Q6ZWH5). The experiment in a line: Binding affinity to wild-type human partial length NEK10 (L488 to R809 residues) expressed in mammalian expression system assessed as residual binding level at 10 uM by Kinomescan method relative to control.
The target in test [16] is Tyrosine-protein kinase Mer (Homo sapiens) (UniProt Q12866). The experiment in a line: Binding affinity to wild-type human partial length MERTK (R557 to L884 residues) expressed in bacterial expression system assessed as residual binding level at 10 uM by Kinomescan method relative to control.
In test [17] the target is Serine/threonine-protein kinase PLK4 (Homo sapiens) (UniProt O00444). The experiment in a line: Binding affinity to wild-type human partial length PLK4 (M1 to S273 residues) expressed in mammalian expression system assessed as residual binding level at 10 uM by Kinomescan method relative to control.
Test [18] addresses Vascular endothelial growth factor receptor 2 (Homo sapiens) (UniProt P35968). The experiment in a line: Binding affinity to wild-type human partial length VEGFR2 (R787 to P1253 residues) expressed in mammalian expression system assessed as residual binding level at 10 uM by Kinomescan method relative to control.
In test [19] the target is Serine/threonine-protein kinase PLK1 (Homo sapiens) (UniProt P53350). The experiment in a line: Binding affinity to wild-type human partial length PLK1 (A33 to F325 residues) expressed in mammalian expression system assessed as residual binding level at 10 uM by Kinomescan method relative to control.
In test [20] the test system is ALK tyrosine kinase receptor (Homo sapiens), Q9UM73 [C1156Y]. The experiment in a line: Binding affinity to wild-type human partial length ALK C1156Y mutant (I1088 to E1409 residues) expressed in mammalian expression system assessed as residual binding level at 10 uM by Kinomescan method relative to control.
Test [21] concerns the target Myosin light chain kinase 2, skeletal/cardiac muscle (Homo sapiens) (UniProt Q9H1R3). The experiment in a line: Binding affinity to wild-type human partial length MYLK2 (D258 to K570 residues) expressed in bacterial expression system assessed as residual binding level at 10 uM by Kinomescan method relative to control.
Test [22] deals with Aurora kinase B (Homo sapiens) (UniProt Q96GD4). The experiment in a line: Binding affinity to wild-type human partial length AURKB (D25 to A303 residues) expressed in mammalian expression system assessed as residual binding level at 10 uM by Kinomescan method relative to control.
Test [23] has as its target NUAK family SNF1-like kinase 2 (Homo sapiens) (UniProt Q9H093). The experiment in a line: Binding affinity to wild-type human partial length SNARK (P22 to A333 residues) expressed in mammalian expression system assessed as residual binding level at 10 uM by Kinomescan method relative to control.
Test [24] addresses Serine/threonine-protein kinase 4 (Homo sapiens) (UniProt Q13043). The experiment in a line: Binding affinity to wild-type human full length MST1 (M1 to F487 residues) expressed in bacterial expression system assessed as residual binding level at 10 uM by Kinomescan method relative to control.

Chain of Serine/threonine-protein kinase D3 (Homo sapiens) (O94806 whole entry, the tested form may be a part): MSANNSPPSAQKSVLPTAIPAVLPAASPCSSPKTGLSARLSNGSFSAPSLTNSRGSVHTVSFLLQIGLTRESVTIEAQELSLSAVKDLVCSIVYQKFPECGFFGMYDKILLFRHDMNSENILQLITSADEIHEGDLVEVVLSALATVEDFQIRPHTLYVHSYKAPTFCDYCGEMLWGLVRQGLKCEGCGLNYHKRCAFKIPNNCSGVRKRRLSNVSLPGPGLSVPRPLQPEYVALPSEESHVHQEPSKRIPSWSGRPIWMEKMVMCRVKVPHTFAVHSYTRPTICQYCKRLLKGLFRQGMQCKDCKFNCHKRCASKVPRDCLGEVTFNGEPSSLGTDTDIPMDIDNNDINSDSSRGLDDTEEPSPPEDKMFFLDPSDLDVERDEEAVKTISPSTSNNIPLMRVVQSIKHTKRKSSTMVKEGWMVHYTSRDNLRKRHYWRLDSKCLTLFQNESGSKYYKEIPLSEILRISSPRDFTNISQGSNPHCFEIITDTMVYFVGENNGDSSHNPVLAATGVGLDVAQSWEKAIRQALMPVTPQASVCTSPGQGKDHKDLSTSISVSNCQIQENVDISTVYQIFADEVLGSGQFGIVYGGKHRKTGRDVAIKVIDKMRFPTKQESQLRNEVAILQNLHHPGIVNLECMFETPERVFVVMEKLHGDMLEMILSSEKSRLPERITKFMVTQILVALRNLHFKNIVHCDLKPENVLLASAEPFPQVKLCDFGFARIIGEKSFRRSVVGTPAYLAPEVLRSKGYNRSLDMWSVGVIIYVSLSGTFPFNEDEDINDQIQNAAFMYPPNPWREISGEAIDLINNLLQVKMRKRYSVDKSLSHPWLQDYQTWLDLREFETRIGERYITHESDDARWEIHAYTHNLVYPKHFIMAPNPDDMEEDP
Chain of Vascular endothelial growth factor receptor 2 (Homo sapiens) (P35968 whole entry, the tested form may be a part): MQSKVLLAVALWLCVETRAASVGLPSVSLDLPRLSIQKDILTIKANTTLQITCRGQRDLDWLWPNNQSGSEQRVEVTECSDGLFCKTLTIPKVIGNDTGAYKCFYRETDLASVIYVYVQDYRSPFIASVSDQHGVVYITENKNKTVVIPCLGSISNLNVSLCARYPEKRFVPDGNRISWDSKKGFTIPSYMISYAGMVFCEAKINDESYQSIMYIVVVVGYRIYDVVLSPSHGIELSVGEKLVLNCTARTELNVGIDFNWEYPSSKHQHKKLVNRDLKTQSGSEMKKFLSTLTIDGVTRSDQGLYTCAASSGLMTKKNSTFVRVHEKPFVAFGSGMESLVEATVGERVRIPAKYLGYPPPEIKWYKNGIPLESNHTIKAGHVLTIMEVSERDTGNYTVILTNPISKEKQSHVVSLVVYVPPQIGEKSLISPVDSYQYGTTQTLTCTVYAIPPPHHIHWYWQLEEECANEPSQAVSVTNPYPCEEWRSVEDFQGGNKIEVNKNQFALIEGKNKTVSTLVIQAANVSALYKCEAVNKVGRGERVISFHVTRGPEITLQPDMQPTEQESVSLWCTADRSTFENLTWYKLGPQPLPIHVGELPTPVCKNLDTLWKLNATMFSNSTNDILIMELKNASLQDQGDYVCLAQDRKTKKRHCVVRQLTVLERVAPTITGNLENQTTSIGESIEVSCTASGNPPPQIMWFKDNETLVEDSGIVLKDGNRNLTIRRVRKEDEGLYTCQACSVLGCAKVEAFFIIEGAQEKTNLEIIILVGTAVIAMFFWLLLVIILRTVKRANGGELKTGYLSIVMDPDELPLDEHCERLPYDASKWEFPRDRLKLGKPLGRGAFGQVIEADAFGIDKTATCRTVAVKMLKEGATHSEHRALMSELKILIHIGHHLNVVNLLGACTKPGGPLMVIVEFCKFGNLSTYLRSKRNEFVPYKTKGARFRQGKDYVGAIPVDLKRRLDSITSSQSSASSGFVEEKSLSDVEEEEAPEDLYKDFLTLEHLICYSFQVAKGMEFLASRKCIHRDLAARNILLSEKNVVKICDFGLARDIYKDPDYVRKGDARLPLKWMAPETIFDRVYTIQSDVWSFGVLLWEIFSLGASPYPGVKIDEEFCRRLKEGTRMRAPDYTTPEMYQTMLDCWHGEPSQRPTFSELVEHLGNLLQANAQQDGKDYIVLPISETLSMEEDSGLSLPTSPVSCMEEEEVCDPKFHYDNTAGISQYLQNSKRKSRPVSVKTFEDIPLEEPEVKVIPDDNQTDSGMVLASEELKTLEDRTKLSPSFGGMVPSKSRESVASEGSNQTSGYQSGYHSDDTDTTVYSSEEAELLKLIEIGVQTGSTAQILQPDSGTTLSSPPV
Chain of Serine/threonine-protein kinase 4 (Homo sapiens) (Q13043 whole entry, the tested form may be a part): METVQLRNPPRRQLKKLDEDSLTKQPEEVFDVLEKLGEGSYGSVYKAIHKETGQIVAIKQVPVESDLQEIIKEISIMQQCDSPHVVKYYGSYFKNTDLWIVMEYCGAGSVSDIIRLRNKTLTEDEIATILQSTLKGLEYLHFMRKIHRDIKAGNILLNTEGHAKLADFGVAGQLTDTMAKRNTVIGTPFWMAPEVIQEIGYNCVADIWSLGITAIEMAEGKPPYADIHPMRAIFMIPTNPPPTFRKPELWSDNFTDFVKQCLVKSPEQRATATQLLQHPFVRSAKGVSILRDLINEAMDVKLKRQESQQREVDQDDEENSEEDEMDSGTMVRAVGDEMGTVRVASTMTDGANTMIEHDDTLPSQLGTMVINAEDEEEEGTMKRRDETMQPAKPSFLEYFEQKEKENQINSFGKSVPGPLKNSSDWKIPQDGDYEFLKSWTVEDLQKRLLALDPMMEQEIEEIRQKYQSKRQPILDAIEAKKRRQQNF
Chain of Aurora kinase B (Homo sapiens) (Q96GD4 whole entry, the tested form may be a part): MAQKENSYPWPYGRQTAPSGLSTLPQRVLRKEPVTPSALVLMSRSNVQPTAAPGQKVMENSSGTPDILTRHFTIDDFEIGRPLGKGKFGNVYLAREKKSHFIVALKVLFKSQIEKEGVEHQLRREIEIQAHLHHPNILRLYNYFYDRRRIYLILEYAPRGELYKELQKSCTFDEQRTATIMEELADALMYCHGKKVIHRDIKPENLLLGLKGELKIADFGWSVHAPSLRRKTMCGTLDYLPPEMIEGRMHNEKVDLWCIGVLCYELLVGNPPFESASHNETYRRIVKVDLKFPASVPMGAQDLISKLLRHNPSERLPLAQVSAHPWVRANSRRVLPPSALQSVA
Chain of Aurora kinase A (Homo sapiens) (O14965 whole entry, the tested form may be a part): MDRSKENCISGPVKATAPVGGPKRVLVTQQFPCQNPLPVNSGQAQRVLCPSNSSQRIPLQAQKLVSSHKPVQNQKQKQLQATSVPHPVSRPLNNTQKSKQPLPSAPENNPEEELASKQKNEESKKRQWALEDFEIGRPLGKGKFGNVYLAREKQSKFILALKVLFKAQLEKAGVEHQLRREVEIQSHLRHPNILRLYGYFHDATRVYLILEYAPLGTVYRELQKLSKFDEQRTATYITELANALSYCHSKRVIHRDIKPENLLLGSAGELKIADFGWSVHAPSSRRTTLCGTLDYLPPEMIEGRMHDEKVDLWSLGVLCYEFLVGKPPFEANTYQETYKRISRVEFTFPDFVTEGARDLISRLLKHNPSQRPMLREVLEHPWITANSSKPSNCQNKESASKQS
Chain of Atypical kinase COQ8A, mitochondrial (Homo sapiens) (Q8NI60 163-647 limits assumed): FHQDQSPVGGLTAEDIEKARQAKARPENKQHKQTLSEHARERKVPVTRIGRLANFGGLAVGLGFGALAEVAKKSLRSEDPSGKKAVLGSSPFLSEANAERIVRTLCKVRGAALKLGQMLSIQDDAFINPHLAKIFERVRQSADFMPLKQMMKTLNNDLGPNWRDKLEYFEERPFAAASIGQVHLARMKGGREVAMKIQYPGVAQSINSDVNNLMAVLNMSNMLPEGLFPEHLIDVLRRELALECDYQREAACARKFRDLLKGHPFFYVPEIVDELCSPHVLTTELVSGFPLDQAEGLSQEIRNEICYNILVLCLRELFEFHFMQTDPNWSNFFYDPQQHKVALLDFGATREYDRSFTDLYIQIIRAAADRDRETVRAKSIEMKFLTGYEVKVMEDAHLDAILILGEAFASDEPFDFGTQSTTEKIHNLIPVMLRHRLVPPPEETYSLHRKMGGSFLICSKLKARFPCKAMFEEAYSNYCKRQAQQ
Chain of Serine/threonine-protein kinase PLK1 (Homo sapiens) (P53350 whole entry, the tested form may be a part): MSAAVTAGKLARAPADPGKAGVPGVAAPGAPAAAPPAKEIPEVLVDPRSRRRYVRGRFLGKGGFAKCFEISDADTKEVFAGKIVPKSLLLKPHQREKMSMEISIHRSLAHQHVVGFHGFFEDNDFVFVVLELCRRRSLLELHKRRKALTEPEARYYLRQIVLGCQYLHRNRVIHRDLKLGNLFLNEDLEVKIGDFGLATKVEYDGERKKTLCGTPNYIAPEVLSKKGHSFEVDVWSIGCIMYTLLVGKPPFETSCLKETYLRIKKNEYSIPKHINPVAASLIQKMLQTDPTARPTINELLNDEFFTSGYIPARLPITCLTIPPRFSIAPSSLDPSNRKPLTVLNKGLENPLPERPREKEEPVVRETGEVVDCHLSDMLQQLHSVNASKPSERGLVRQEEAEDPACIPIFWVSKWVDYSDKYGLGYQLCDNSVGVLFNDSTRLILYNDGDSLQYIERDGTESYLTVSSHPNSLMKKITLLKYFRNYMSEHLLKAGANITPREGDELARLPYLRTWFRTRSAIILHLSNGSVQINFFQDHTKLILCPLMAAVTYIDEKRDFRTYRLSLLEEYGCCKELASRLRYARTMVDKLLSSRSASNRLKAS
Chain of Mitogen-activated protein kinase 3 (Homo sapiens) (P27361 whole entry, the tested form may be a part): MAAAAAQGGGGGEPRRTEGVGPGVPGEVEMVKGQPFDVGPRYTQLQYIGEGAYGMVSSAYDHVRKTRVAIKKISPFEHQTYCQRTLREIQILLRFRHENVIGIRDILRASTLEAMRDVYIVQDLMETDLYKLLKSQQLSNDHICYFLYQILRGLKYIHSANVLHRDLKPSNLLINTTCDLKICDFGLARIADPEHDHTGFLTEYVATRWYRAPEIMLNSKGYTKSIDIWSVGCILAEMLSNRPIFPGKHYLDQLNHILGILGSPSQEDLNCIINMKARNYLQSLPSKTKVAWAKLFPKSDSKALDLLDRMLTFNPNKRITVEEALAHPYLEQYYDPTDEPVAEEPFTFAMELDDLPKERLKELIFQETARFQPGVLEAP

In the case of `O=C(Nc1cc(-c2cn(CCNc3c4c(nc5ccccc35)CCCC4)nn2)ccn1)Nc1cccc2c1C1CCCCN1C2=O` (racemic), the Activity was 12% in [1]; 1.8% in test [2]; 67% in test [3]; 9.5% in [4]; 80% in test [5]; 80% in test [6]. Moreover, the Activity in [7] worked out at 3.4%; in test [8], 40%; in test [9] it was 100%; in test [10], 84%; in test [11], 57%; in test [12] it was 75%. The Activity in [13] worked out at 8.7%; in [14], 6.7%; in test [15], 2.5%; in test [16], 12%; in test [17], 100%; in test [18], 9.1%. Moreover, the Activity in test [19] came to 81%; in [20], 100%; in test [21], 24%; in test [22] it was 5.6%; in [23], 1.9%; in test [24], 66%.
